Measurements from article PMC5047057 (Oral oncology, 2016).

What was measured:
[1] = tested on: patients with Rb-positive cancers; details: cited from earlier work
[2] = tested on: patients with recurrent/metastatic head and neck squamous cell carcinoma (HNSCC)
[3] = tested on: Rb-positive cell lines; details: cited from earlier work
[4] = clinical; parameters: species or system human; details: in vivo; for Tmax / AUC(0-t) / Cmax: human, po; for AUC(0-t): AUC0-24h
[5] = tested on: Rb-negative tumor xenografts; details: cited from earlier work
[6] = Palbociclib 125 mg (n=6 pts) with weekly cetuximab, all cycles

## CC(=O)c1c(C)c2cnc(Nc3ccc(N4CCNCC4)cn3)nc2n(C2CCCC2)c1=O [palbociclib]
[1]; dose range of 25-150 mg
  Systemic exposure versus dose: dose proportionality
[1]; once daily, administered for 21 days of each 28 day cycle, monotherapy
  Maximum tolerated dose (MTD): 125 mg
[1]; palbociclib monotherapy phase I trials
  Dose-limiting toxicity (DLT): neutropenia
[2]; [6]
  Acneiform Rash, Grade 3 (number of patients): 0
  Acneiform Rash, Grades 1-2 (number of patients): 5
  Anemia, Grade 3 (number of patients): 0
  Anemia, Grades 1-2 (number of patients): 6
  Diarrhea, Grade 3 (number of patients): 0
  Diarrhea, Grades 1-2 (number of patients): 1
  Fatigue, Grade 3 (number of patients): 0
  Fatigue, Grades 1-2 (number of patients): 3
  Hypomagnesemia, Grade 3 (number of patients): 0
  Hypomagnesemia, Grades 1-2 (number of patients): 2
  Infusion Reaction, Grade 3 (number of patients): 0
  Infusion Reaction, Grades 1-2 (number of patients): 1
  Nausea, Grade 3 (number of patients): 0
  Nausea, Grades 1-2 (number of patients): 2
  Neutropenia, Grade 3 (number of patients): 2
  Neutropenia, Grades 1-2 (number of patients): 2
  Thrombocytopenia, Grade 3 (number of patients): 0
  Thrombocytopenia, Grades 1-2 (number of patients): 3
  Vomiting, Grade 3 (number of patients): 0
  Vomiting, Grades 1-2 (number of patients): 1
[2]; days 1-21 of a 28 day cycle with standard doses of weekly cetuximab
  Palbociclib dose recommended for phase II trials: 125 mg/day
[2]; in vivo
  Intra-patient dose reductions: did not occur
  Most common AE: Myelosuppression
[2]; palbociclib up to 125 mg/day days 1-21 of 28 with standard weekly cetuximab
  Maximum tolerated dose (MTD): not reached
[3]
  Anti-proliferative effects: potent anti-proliferative effects
[4]; 100 mg
  Tmax: 8 h
  AUC(0-t): 1480 ng·h/mL
  Cmax: 70 ng/mL
[4]; 100 mg, Tmax
  Tmax: 8 h
[4]; 125 mg
  AUC(0-t): 2230 ng·h/mL
  Cmax: 145 ng/mL
[4]; 125 mg, Tmax
  Tmax: 8 h
[4]
  Dose-normalized Cmax and AUC0-24h, 100 vs 125 mg daily oral doses: comparable
[5]
  Activity in xenografts: no activity
